Laboratory results: US20030068789A1, “Method for cultivating microorganism” (priority 2000, published 2003)

Tested on: microorganism having nitrile hydratase activity
Assay: Growth inhibition caused by cobalt ions in cultivating a microorganism
Assay type: cell-based
Settings: sugar present in culture solution as carbon source
Source text: The present inventors have conducted intensive studies on culture conditions to industrially obtain microbial cells having nitrile hydratase activity within a short period and at a high yield. […] Thus, the present invention has been accomplished.
As a result, it is possible to obtain microbial cells having nitrile hydratase enzyme activity within a short period and at a high yield

Compound	growth inhibition caused by cobalt ions
O=C(CO)[C@@H](O)[C@H](O)[C@H](O)CO [fructose]	can reduce growth inhibition caused by cobalt ions
OC[C@@H](O)[C@@H](O)[C@H](O)[C@H](O)CO [mannitol]	can reduce growth inhibition caused by cobalt ions
